Assays:
[1] = test system: human skeletal muscle myocytes; test: Gene expression modulation in skeletal muscle human myocytes (RTqPCR contractility gene panel); format: cell-based; settings: vs basal control
Protocol: Said peptides were tested to evaluate their capacity to modulate the expression of several genes related with muscle contraction and relaxation in human skeletal muscle myocytes (Lodish H, Berk A, Zipursky S L, et al. (2000), Molecular Cell Biology, 4th edition; Section 18.3 Myosin: The Actin Motor Protein, Nueva York, W. H. Freeman; Kuo, I Y, & Ehrlich, B E (2015), Signaling in Muscle Contraction, Cold Spring Harbor Perspectives in Biology, 7(2); RAPSN receptor associated protein of the synapse [Homo sapiens (human)], Gene ID in NCBI 5913; Blake D J, Tinsley J M, Davies K E (1996), Utrophin: a structural and functional comparison to dystrophin, Brain Pathol., 6(1):37-47; Barik A, Lu Y, Sathyamurthy A, et.al. (2014), LRP4Is Critical for Neuromuscular Junction Maintenance, The Journal of Neuroscience, 34(42), 13892-13905; Kim N, Stiegler A L, Cameron T O, Hallock P T, et.al. (2008), Lrp4 is a Receptor for Agrin and Forms a Complex with MuSK, Cell, 135(2), 334-342; Mahavadi S, Nalli A, Kumar D, et.al. (2014), Increased expression of caveolin-1 is associated with upregulation of the RhoA/Rho kinase pathway and smooth muscle contraction in diabetes (1110.11), The FASEB Journal, 28:1_supplement)). To that end, a contractility smart data gene panel was designed. Said contractility smart data gene panel analyses the expression of the genes related with muscular contraction and relaxation included in table 5.
Briefly, human skeletal muscle myoblasts were seeded in duplicate in 12-well culture plates at a density of 1×10^5 cells/well and maintained at standard culture conditions (37° C., 95% humidity, 5% CO2) for 48-72h. Myoblast differentiation to myocyte was then induced with specific differentiation media (SKM-D medium+1% Antibiotic-Antimycotic) and monitored for 7 more days. Differentiated cells were treated with 0.05 mg/mL of peptide Ac-SEQ ID NO: 5-NH2; or with 0.1 mg/mL of peptide Ac-SEQ ID NO: 10-NH2 for 24 hours; or with 0.05 and 0.5 mg/mL of peptide Ac-SEQ ID NO: 8-NH2 for 6h; or with 0.5 mg/mL of peptide Ac-SEQ ID NO: 8-NH2 for 24 h. Untreated cells were used as basal control. Cells were then lysed for RNA extraction with a RNA purification commercial kit following manufacturer instructions (RNeasy mini kit, Qiagen, Netherlands). RNA was then quantified by nanodrop, adjusted in concentration and processed for retrotranscription to cDNA using a commercially available kit (High-Capacity cDNA Reverse Transcription kit, Thermofisher Scientific, USA). Resulting cDNA was used to perform a RTqPCR (Real Time Quantitative Polymerase Chain Reaction) using taqman technology and a panel of probes designed to target the specific genes related to muscle contractility mentioned in table 4.

[2] = test system: human skeletal muscle cells; test: Calcium mobilization assay (Fluo-4 NW) after 60 mM KCl; format: cell-based; settings: 48 hours, vs untreated control
Protocol: The potential of said peptide Ac-SEQ ID NO: 8-NH2 to reduce calcium mobilization on human skeletal muscle cells was evaluated in vitro with Fluo-4 NW Calcium Assay Kit (ThermoFisher Scientific, MA USA). Briefly, human skeletal muscle myoblasts were seeded in quintuplicates in a black 96-well plate, clear bottom, at a density of 1×10^4 cells/well and maintained at standard culture conditions (37° C., 95% humidity, 5% CO2) for 48-72h. Myoblast differentiation to myocyte was then induced with specific differentiation medium (SKM-D medium+1% a/a) and monitored for 7 more days. Differentiated cells were treated with non-cytotoxic concentrations of peptide Ac-SEQ ID NO: 8-NH2 (0.01 mg/mL, 0.05 mg/mL and 0.1 mg/mL) for additional 48 hours.
Once incubation was finished, cell culture medium was replaced by 100 μl of Dye loading solution and the plate was kept on the incubator for 30 minutes. Dye solution was then replaced by assay buffer prior to calcium measurement using FLUOstar Omega instrument (BMG Labtech, Germany). For appropriate kinetic measurement, a pre-stimulus phase of 10 seconds was set to determine the baseline signal before induction of calcium influx by addition of 60 mM KCl. Post-stimulus phase was set at 90 seconds, with readings every 0.1 seconds at 494/516 nm (excitation/emission).
The following steps were performed for data analysis: 1) Calculation of a mean kinetic curve for each condition; 2) determination of maximum fluorescent signal for each curve after stimulation with KCl; 3) calculation of the fold change increase versus baseline; 4) normalization of results obtained for each condition (each peptide concentration) versus the one obtained for the control (untreated cells).

[3] = target: Munc18/Syntaxin-1 (Homo sapiens, UniProt Q16623); test: ELISA-based in vitro Munc18/Syntaxin-1 binding assay; settings: peptide 0.1, 0.5 and 1 mM; Munc18 100 nM, Syntaxin-1 10 and 5 nM; control = 100% binding
Chain of Munc18/Syntaxin-1 (Q16623 whole entry): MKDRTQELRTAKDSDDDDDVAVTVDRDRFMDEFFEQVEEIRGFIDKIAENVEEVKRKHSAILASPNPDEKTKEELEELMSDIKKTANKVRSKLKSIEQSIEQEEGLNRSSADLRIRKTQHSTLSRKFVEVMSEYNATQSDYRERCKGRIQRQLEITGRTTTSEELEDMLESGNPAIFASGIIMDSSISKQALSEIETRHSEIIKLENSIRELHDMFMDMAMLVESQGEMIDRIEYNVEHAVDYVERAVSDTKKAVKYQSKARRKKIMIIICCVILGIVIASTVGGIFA
Protocol: The capacity of the peptides to inhibit Munc18 protein-protein interaction with Syntaxin-1, a SNARE complex protein, was functionally evaluated by means of an ELISA-based in vitro Munc18/Syntaxin-1 binding assay. Briefly, the above-mentioned peptides at 0.1, 0.5 and 1 mM were preincubated with their target protein Syntaxin-1 (GST-tagged) at 10 and 5 nM in buffer (20 mM Hepes, 150 mM NaCl, 2 mM MgC2, 2 mM DTT, 0.5% Triton-X100 and 0.5% non-fat milk) for 3 hours at RT. Meanwhile, His-tagged Munc18 was bound to a Nickel-coated 96-well plate at 100 nM and incubated at RT for 1.5 hours. Non-bound protein was subsequently washed away before blocking wells with non-fat milk in wash buffer (PBS+0.02% Triton-X100) for additional 30 minutes. GST-tagged Syntaxin-1 preincubated with the peptides was then added at 10 and 5 nM to the plate and incubated for 2 h at RT. Wells were washed three times with wash buffer before incubation with the primary antibody (GST tag polyclonal antibody—Thermofisher Scientific, Massachusetts, USA) for 45 minutes. Finally, after washing again, HRP-conjugated secondary antibody (Anti-Rabbit-IgG-HRP—Sigma, Missouri, USA) was added and incubated at RT. TMB substrate (3,3′,5,5′-Tetramethylbenzidine) was used to develop signal. […] Amount of binding of Syntaxin-1 protein to Munc18 protein was analysed by measuring absorbance at 450 nm.

Maximum inhibition of Munc18-Syntaxin-1 binding [3]: 37%
Substance: Ac-His-Ala-Leu-Arg-Phe-Trp-NH2 [Ac-SEQ ID NO: 8-NH2]
CACNB1 gene expression ([1]; 0.05 mg/mL, 6 hours): downregulation
LRP4 gene expression ([1]; 0.05 mg/mL, 6 hours): downregulation
MYH1 gene expression ([1]; 0.05 mg/mL, 6 hours): downregulation
UTRN gene expression ([1]; 0.05 mg/mL, 6 hours): downregulation
ACTA1 gene expression ([1]; 0.5 mg/mL, 6 hours): downregulation
CALM3 gene expression ([1]; 0.5 mg/mL, 6 hours): downregulation
CAV1 gene expression ([1]; 0.5 mg/mL, 6 hours): downregulation
SCN3A gene expression ([1]; 0.5 mg/mL, 6 hours): downregulation
TNNC1 gene expression ([1]; 0.5 mg/mL, 6 hours): downregulation
ATP2A gene expression ([1]; 0.5 mg/mL, 24 hours): upregulation
RAPSN gene expression ([1]; 0.5 mg/mL, 24 hours): downregulation
reduction of calcium influx ([2]; 0.01 mg/mL): −6%
reduction of calcium influx ([2]; 0.05 mg/mL): −20%
reduction of calcium influx ([2]; 0.1 mg/mL): −30%

— patent US11634458B2, “Peptides and compositions for use in cosmetics and medicine” (LIPOTRUE, S.L., priority 2018, dated 2023)
